The results in this text go back to the NIST ThermoML archive (doi:10.1016/j.jct.2010.12.025).

Numbers after ± are expanded uncertainties.

The conditions of the data set: 298.15 K; 101.33 kPa; Liquid; Vibrating tube method.
For `CC(C)CN` [2-methyl-1-propanamine], the molar volume came out at 0.000101 ± 1e-07 m3/mol.
Under `CCC(N)CC` [1-ethylpropylamine] stands 0.0001172 ± 2.4e-07 m3/mol; under `CCCCCCCCCCN` [1-decanamine], 0.000199 ± 2e-07 m3/mol; under `CCCCN` [1-butanamine], 9.987e-05 ± 1e-07 m3/mol.
Under `CCC(C)(C)N` [1,1-dimethylpropylamine] stands 0.0001192 ± 1.3e-07 m3/mol.
Under `CCCCCCCCCCCCN` [1-dodecanamine] stands 0.0002323 ± 2e-07 m3/mol.
In the case of `CCCCCCCCCN` [1-aminononane], the molar volume worked out at 0.0001829 ± 1.8e-07 m3/mol.
To `CCCCCN` [1-pentanamine] belongs 0.0001163 ± 1.1e-07 m3/mol; to `CC(C)N` [2-propanamine], 8.672e-05 ± 1e-07 m3/mol; to `CCCCCCCCCCCCCCN` [1-tetradecanamine], 0.0002655 ± 1e-07 m3/mol.
Under `CCCCCCN` [1-hexanamine] stands 0.0001331 ± 1.1e-07 m3/mol.
To `CCCCCCCN` [1-heptanamine] belongs 0.0001496 ± 1.1e-07 m3/mol; to `CCCCCCCCN` [1-octanamine], 0.0001662 ± 1.1e-07 m3/mol.
As to `CC(C)(C)N` [2-methyl-2-propanamine], the molar volume came to 0.0001065 ± 1e-07 m3/mol.
To `CCCN` [propan-1-amine] belongs 8.315e-05 ± 1e-07 m3/mol; to `CC(C)CCN` [3-methyl-1-butanamine], 0.000117 ± 1.1e-07 m3/mol.
Under `CCCCCCC` [heptane] stands 0.0001475 ± 1.1e-07 m3/mol; under `CCC(C)N` (stereo not drawn) [2-butanamine], 0.0001019 ± 1.1e-07 m3/mol.
